{
  "source": "patent US20250250230A1",
  "about": "“HETEROCYCLIC COMPOUND” (TAKEDA PHARMACEUTICAL COMPANY LIMITED, priority 2022, published 2025)",
  "data": [
    {"biological_target": "T1, human orexin type 2 receptor (Homo sapiens, UniProt O43614)", "T1 construct": "expressed in transfected cells", "T1 sequence (O43614 1-444)": "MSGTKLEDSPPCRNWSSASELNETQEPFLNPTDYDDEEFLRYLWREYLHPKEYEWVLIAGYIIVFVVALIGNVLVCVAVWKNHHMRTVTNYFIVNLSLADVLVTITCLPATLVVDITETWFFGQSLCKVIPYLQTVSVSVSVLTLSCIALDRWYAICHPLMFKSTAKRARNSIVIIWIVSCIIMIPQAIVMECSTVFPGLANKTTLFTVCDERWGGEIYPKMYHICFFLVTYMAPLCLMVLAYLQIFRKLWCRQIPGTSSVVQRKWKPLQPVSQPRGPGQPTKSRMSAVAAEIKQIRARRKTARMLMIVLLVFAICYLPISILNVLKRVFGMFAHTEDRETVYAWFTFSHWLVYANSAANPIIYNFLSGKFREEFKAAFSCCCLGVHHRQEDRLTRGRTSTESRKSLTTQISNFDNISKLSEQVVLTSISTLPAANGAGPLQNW", "experiment": "Measurement of orexin type 2 receptor agonist activity (calcium fluorescence, Fluo-4 AM, FDSS)", "assay_type": "cell-based", "conditions": "test compound 3 μM; CHO cells expressing human OX2 receptor; DMSO = 0%, orexin A (human) = 100%", "method_in_brief": "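CHO-K1 cells stably expressing human OX2R were loaded with Fluo-4 AM (30 min 37 °C, 30 min RT) in HEPES-buffered HBSS with 0.1% BSA and probenecid. Calcium fluorescence was followed on FDSS for 2 min after compound addition; activity normalised to DMSO (0%) and 10 nM orexin A (100%).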", "units": {"OX2R agonist activity (3 μM, %)": "%"}, "values": [
      {"compound": "CS(=O)(=O)NC1CCCN(C(=O)C2CC2c2ccc(F)cc2-c2c(F)cccc2F)C1", "note": "(racemic) [Example 152, a mixture of rac-N-{(3R)-1-[(1R,2R)-2-(2′,5,6′-trifluoro[1,1′-biphenyl]-2-yl)cyclopropane-1-carbonyl]piperidin-3-yl}methanesulfonamide and rac-N-{(3S)-1-[(1R,2R)-2-(2′,5,6′-trifluoro[1,1′-biphenyl]-2-yl)cyclopropane-1-carbonyl]piperidin-3-yl}methanesulfonamide]", "OX2R agonist activity (3 μM, %)": 95},
      {"compound": "CS(=O)(=O)N[C@H]1CCCN(C(=O)C2CC2c2c(F)cccc2-c2c(F)cccc2F)C1", "note": "(stereo partly drawn) [Example 196, N-{(3S)-1-[(1R,2R)-2-(2′,3,6′-trifluoro[1,1′-biphenyl]-2-yl)cyclopropane-1-carbonyl]piperidin-3-yl}methanesulfonamide, or N-{(3S)-1-[(1S,2S)-2-(2′,3,6′-trifluoro[1,1′-biphenyl]-2-yl)cyclopropane-1-carbonyl]piperidin-3-yl}methanesulfonamide]", "OX2R agonist activity (3 μM, %)": 101},
      {"compound": "CCS(=O)(=O)NC[C@@H]1[C@H](F)CN1C(=O)[C@@H]1C[C@@]1(F)c1ccc(C)cc1-c1c(F)cccc1F", "note": "[Example 410, N-({(2R,3R)-1-[(1S,2S)-2-(2′,6′-difluoro-5-methyl[1,1′-biphenyl]-2-yl)-2-fluorocyclopropane-1-carbonyl]-3-fluoroazetidin-2-yl}methyl)ethanesulfonamide]", "OX2R agonist activity (3 μM, %)": 103},
      {"compound": "CNS(=O)(=O)N[C@H]1CCN(C(=O)[C@@H]2C[C@H]2c2ccccc2-c2c(F)cccc2F)C1", "note": "[Example 335, N-{(3S)-1-[(1R,2R)-2-(2′,6′-difluoro[1,1′-biphenyl]-2-yl)cyclopropane-1-carbonyl]pyrrolidin-3-yl}-N′-methylsulfuric diamide]", "OX2R agonist activity (3 μM, %)": 96},
      {"compound": "CS(=O)(=O)N[C@H]1CCCN(C(=O)C2CC2c2cccc(F)c2-c2c(F)cccc2F)C1", "note": "(mixture of isomers) [Example 193, a mixture of N-{(3S)-1-[(1R,2R)-2-(2′,6,6′-trifluoro[1,1′-biphenyl]-2-yl)cyclopropane-1-carbonyl]piperidin-3-yl}methanesulfonamide and N-{(3S)-1-[(1S,2S)-2-(2′,6,6′-trifluoro[1,1′-biphenyl]-2-yl)cyclopropane-1-carbonyl]piperidin-3-yl}methanesulfonamide]", "OX2R agonist activity (3 μM, %)": 98},
      {"compound": "CN(C)S(=O)(=O)NC[C@H]1CCN1C(=O)[C@@H]1C[C@H]1c1ccccc1-c1c(F)cccc1F", "note": "[Example 298, N′-({(2R)-1-[(1R,2R)-2-(2′,6′-difluoro[1,1′-biphenyl]-2-yl)cyclopropane-1-carbonyl]azetidin-2-yl}methyl)-N,N-dimethylsulfuric diamide]", "OX2R agonist activity (3 μM, %)": 100},
      {"compound": "CC(C)S(=O)(=O)NC[C@@H]1[C@H](F)CN1C(=O)[C@@H]1C[C@@]1(F)c1ccc(F)cc1-c1c(F)cccc1F", "note": "[Example 444, N-({(2R,3R)-3-fluoro-1-[(1S,2S)-2-fluoro-2-(2′,5,6′-trifluoro[1,1′-biphenyl]-2-yl)cyclopropane-1-carbonyl]azetidin-2-yl}methyl)propane-2-sulfonamide]", "OX2R agonist activity (3 μM, %)": 96},
      {"compound": "CCS(=O)(=O)N[C@@H]1CN(C(=O)[C@@H]2C[C@H]2c2ccccc2-c2c(F)cccc2F)CCC1(F)F", "note": "[Example 240, N-{(3R)-1-[(1R,2R)-2-(2′,6′-difluoro[1,1′-biphenyl]-2-yl)cyclopropane-1-carbonyl]-4,4-difluoropiperidin-3-yl}ethanesulfonamide]", "OX2R agonist activity (3 μM, %)": 100},
      {"compound": "CS(=O)(=O)NC1CCN(C(=O)C2CC2c2ccccc2-c2c(F)cccc2Cl)C1", "note": "(racemic) [Example 15, a mixture of rac-N-{(3R)-1-[(1R,2R)-2-(2′-chloro-6′-fluoro[1,1′-biphenyl]-2-yl)cyclopropane-1-carbonyl]pyrrolidin-3-yl}methanesulfonamide and rac-N-{(3S)-1-[(1R,2R)-2-(2′-chloro-6′-fluoro[1,1′-biphenyl]-2-yl)cyclopropane-1-carbonyl]pyrrolidin-3-yl}methanesulfonamide]", "OX2R agonist activity (3 μM, %)": 92},
      {"compound": "CN(C)S(=O)(=O)NC[C@@H]1[C@H](F)CN1C(=O)[C@@H]1C[C@@]1(F)c1ccc(F)cc1-c1c(F)cccc1F", "note": "[Example 424, N′-({(2R,3R)-3-fluoro-1-[(1S,2S)-2-fluoro-2-(2′,5,6′-trifluoro[1,1′-biphenyl]-2-yl)cyclopropane-1-carbonyl]azetidin-2-yl}methyl)-N,N-dimethylsulfuric diamide]", "OX2R agonist activity (3 μM, %)": 98},
      {"compound": "CS(=O)(=O)N[C@H]1CCCN(C(=O)C2CC2(F)c2ccccc2-c2c(F)cccc2F)CC1", "note": "(mixture of isomers) [Example 290, a mixture of N-{(4S)-1-[(1R,2R)-2-(2′,6′-difluoro[1,1′-biphenyl]-2-yl)-2-fluorocyclopropane-1-carbonyl]azepan-4-yl}methanesulfonamide and N-{(4S)-1-[(1S,2S)-2-(2′,6′-difluoro[1,1′-biphenyl]-2-yl)-2-fluorocyclopropane-1-carbonyl]azepan-4-yl}methanesulfonamide]", "OX2R agonist activity (3 μM, %)": 98},
      {"compound": "CS(=O)(=O)N[C@H]1CCN(C(=O)C2(F)CC2c2ccccc2-c2c(F)cccc2F)C1", "note": "(stereo partly drawn) [Example 324, N-{(3S)-1-[(1R,2R)-2-(2′,6′-difluoro[1,1′-biphenyl]-2-yl)-1-fluorocyclopropane-1-carbonyl]pyrrolidin-3-yl}methanesulfonamide, or N-{(3S)-1-[(1S,2S)-2-(2′,6′-difluoro[1,1′-biphenyl]-2-yl)-1-fluorocyclopropane-1-carbonyl]pyrrolidin-3-yl}methanesulfonamide]", "OX2R agonist activity (3 μM, %)": 96},
      {"compound": "CCS(=O)(=O)NC[C@@H]1[C@@H](O)CN1C(=O)[C@@H]1C[C@@]1(F)c1ccccc1-c1c(F)cccc1F", "note": "[Example 382, N-({(2R,3S)-1-[(1S,2S)-2-(2′,6′-difluoro[1,1′-biphenyl]-2-yl)-2-fluorocyclopropane-1-carbonyl]-3-hydroxyazetidin-2-yl}methyl)ethanesulfonamide]", "OX2R agonist activity (3 μM, %)": 96},
      {"compound": "CC1CCN(C(=O)C2CC2c2ccccc2-c2c(F)cccc2F)CC1NS(C)(=O)=O", "note": "(racemic) [Example 185, a mixture of rac-N-{(3R,4R)-1-[(1R,2R)-2-(2′,6′-difluoro[1,1′-biphenyl]-2-yl)cyclopropane-1-carbonyl]-4-methylpiperidin-3-yl}methanesulfonamide and rac-N-{(3S,4S)-1-[(1R,2R)-2-(2′,6′-difluoro[1,1′-biphenyl]-2-yl)cyclopropane-1-carbonyl]-4-methylpiperidin-3-yl}methanesulfonamide]", "OX2R agonist activity (3 μM, %)": 57},
      {"compound": "CS(=O)(=O)NC[C@@H]1[C@H](F)CN1C(=O)[C@@H]1C[C@@]1(F)c1ccccc1-c1c(F)cccc1F", "note": "[Example 390, N-({(2R,3R)-1-[(1S,2S)-2-(2′,6′-difluoro[1,1′-biphenyl]-2-yl)-2-fluorocyclopropane-1-carbonyl]-3-fluoroazetidin-2-yl}methyl)methanesulfonamide]", "OX2R agonist activity (3 μM, %)": 98}
    ]}
  ]
}
